Tests used:
[1] = NMR comparison of CBD before and after encapsulation into nanoparticles (stability); format: physicochemical; details: encapsulated CBD (bottom spectrum) relative to non-encapsulated CBD sample (top spectrum), FIG. 3
Description: In some aspects, the cannabinoid in the dispersion can have a purity of at least 90%. In a further aspect, the purity of the cannabinoid in the dispersion ranges from 90-100%. In a still further aspect, the purity of the cannabinoid in the dispersion ranges from 92-97%. In general, the inventors have discovered that the encapsulation process described herein can be improved with the use of a pure cannabinoid starting material (e.g., from 92-97% pure). Similarly, the nanoparticle encapsulated cannabinoid products can advantageously maintain the purity of the cannabinoid over extended periods of time. In some aspects, the purity of the cannabinoid starting material can be maintained once encapsulated for a period of twelve months or longer, e.g., 18 months or longer, or even 24 months or longer. The stable shelf life of the cannabinoid nanoparticles is an advantage over many existing methods for delivering cannabinoid products. In some aspects, the stability of the cannabinoid can be measured using NMR, e.g., by comparing a pre-encapsulated cannabinoid to a cannabinoid extracted from a nanoparticle prepared by a disclosed method.

[2] = dystonia and parkinsonism due to antipsychotics; cited from earlier work

Row | SMILES | stability of CBD after encapsulation into nanoparticles (NMR spectra) [1] | duration of benefits [2] | time until benefits are seen [2]
1 | C=C(C)[C@@H]1CCC(C)=C[C@H]1c1c(O)cc(CCCCC)cc1O [CBD, cannabidiol] | remains intact | – | –
2 | CN1[C@@H]2CC[C@H]1C[C@@H](OC(c1ccccc1)c1ccccc1)C2 [Benztropine] | – | ≤ 10 h | ≤ 2 h

— patent US20230149318A1, “COMBINATIONS OF NANOPARTICLE-ENCAPSULATED CARGO ENTITIES AND METHODS FOR MAKING AND USING SAME” (Nurevelation, LLC, priority 2021, published 2023)
